Counter-ions that a name gives are not always drawn. Like-named read-outs stand apart in the source and are kept apart here.
What was measured:
LX-2 cells [1] = experiment: MTT assay of cell viability; format: cell-based, human
Procedure: (§1) LX 2 cell lines were bought from American Type Culture Collection (Rockville, MD, USA). Upon defrosting, the cells were seeded in 6-well plates and maintained in a medium DMEM low glucose supplemented with 10% FBS and a 1% Penicillin and Streptomycin solution. The obtained cell cultures were left at 37 °C in an incubator with 5% CO2, and the culture medium was changed after 3 or 4 days. Sub-confluent cells were treated over a period of 24 h using various concentrations (1, 5, 10 µM) of compounds 1a–o, 2a–c, and dimethyl fumarate (DMF) previously dissolved in DMSO. Control groups were treated with only DMSO.
An MTT assay was performed to monitor cell viability, measuring the conversion of tetrazolium salt to yield colored formazan, the amount of which was proportional to the number of living cells. Regarding this assay, LX2 cells were seeded at a concentration of […] cells per well, in a 96-multiwell flat-bottomed 200 μL microplate. The optical density of each well was measured with a microplate spectrophotometer reader (Synergy HT, BioTek) at λ = 570 nm.

HO-1 = HO-1 expression by ELISA in LX-2 cell lysates; format: cell-based, human; details: for fold induction at 1 µM / fold induction at 5 µM / fold induction at 10 µM: Homo sapiens, LX-2, 24 h; for fold induction at 1 µM / fold induction at 5 µM / fold induction at 10 µM / Fold Induction (ELISA): 24 h, LX-2 cells lysate, vs control group, mean ± SD of triplicate; for potency as HO-1 inducers relative to DMF: LX-2 cells, more active than DMF
Procedure: as §1
The commercially available ELISA kit (ADI-EKS-800, Enzo Life Sci) was used to measure heme oxygenase […] (HO-1) protein concentration in LX2 cellular lysates. The test was performed in agreement with the protocol reported by the manufacturer. Absorbance at λ = 450 nm was measured and the concentration of HO-1 was calculated from a standard curve previously created using purified HO-1 protein. Results were expressed as folds of change compared to the control group. Individual measurement was performed in triplicate and data were reported as averages.

LX-2 cells [2] = experiment: ROS assay with DCFH-DA, palmitic acid (PA)-mediated ROS production; format: cell-based, human; details: 24 h; for ROS production mediated by palmitic acid (PA), co-treatment: 5 μM compound + PA 300 μM, p < 0.05 vs. PA
Procedure: Determination of the reactive oxygen species (ROS) was performed using a fluorescent probe 2′,7′-dichlorofluorescein diacetate (DCFH-DA). The fluorescence (corresponding to the oxidized radical species 2′,7′-dichlorofluorescein, DCF) was monitored spectrofluorometrically (excitation, λ = 488 nm; emission, λ = 525 nm). Results were reported as fluorescence intensity. Concerning the experiments, the cells were seeded in 96-well plates at a density of 1 × 10^4 cells per well. Then, the cells were treated for 24 h with DMEM containing a no cytotoxic concentration of palmitic acid (PA) 300 μM in the presence or absence of compound 1b, 1l, 1m and dimethyl fumarate (DMF) (5 μM).

Row | melting point | Compound | IC50 (LX-2 cells [1]; Homo sapiens) | fold induction at 1 µM (HO-1; 1 μM) | fold induction at 5 µM (HO-1; 5 μM) | fold induction at 10 µM (HO-1; 10 μM) | other results
1 | 180 to 181 °C | COc1ccc(OC(=O)/C=C/C(=O)Oc2ccc(OC)cc2)cc1 [Compound 1g, (2E)-2-Butenedioic acid, 1,4-bis(4-methoxyphenyl) ester] | 22.3 ± 1.8 µM | 0.3 ± 0.01 | 0.76 ± 0.02 | 0.9 ± 0.06 | –
2 | 178 to 179 °C | O=C(/C=C/C(=O)Oc1ccc(Cl)cc1)Oc1ccc(Cl)cc1 [Compound 1b, (2E)-2-Butenedioic acid, 1,4-bis(4-chlorophenyl) ester] | > 50 µM | 8.81 ± 0.2 | 8.19 ± 0.21 | 11.7 ± 0.41 | ROS production mediated by palmitic acid (PA), co-treatment (LX-2 cells [2]): significantly reversed the effect mediated by PA; potency as HO-1 inducers relative to DMF (HO-1): 2–3 fold
3 | 332 to 333 °C | O=C(/C=C/C(=O)Nc1ccccc1)Nc1ccccc1 [Compound 1l, (E)-N, N’-Diphenyl-2-butenediamide] | > 50 µM | 6.9 ± 0.14 | 9.74 ± 0.25 | 10.2 ± 0.29 | ROS production mediated by palmitic acid (PA), co-treatment (LX-2 cells [2]): significantly reversed the effect mediated by PA; potency as HO-1 inducers relative to DMF (HO-1): 2–3 fold
4 | – | O=C(/C=C/C(=O)Oc1ccccc1C(=O)O)Oc1ccccc1C(=O)O [Compound 1h, (2E)-2-Butenedioic acid, 1,4-bis(2-carboxyphenyl) ester] | > 50 µM | 6.37 ± 0.22 | 7.45 ± 0.21 | 9.95 ± 0.19 | –
5 | 77 to 79 °C | O=C(/C=C/C(=O)OCCc1ccccc1)OCCc1ccccc1 [Compound 1j, (2E)-2-Butenedioic acid, 1,4-bis(phenylethyl) ester] | > 50 µM | 2.29 ± 0.1 | 5.91 ± 0.17 | 8.47 ± 0.33 | –
6 | 164 to 165 °C | O=C(/C=C/C(=O)Oc1ccccc1)Oc1ccccc1 [Compound 1a, (2E)-2-Butenedioic acid, 1,4-diphenyl ester] | > 50 µM | 6.65 ± 0.15 | 7.93 ± 0.18 | 8.16 ± 0.32 | –
7 | 230 to 232 °C | N#Cc1ccc(OC(=O)/C=C/C(=O)Oc2ccc(C#N)cc2)cc1 [Compound 1e, (2E)-2-Butenedioic acid, 1,4-bis(4-cyanophenyl) ester] | > 50 µM | 3.68 ± 0.21 | 5.22 ± 0.11 | 6.5 ± 0.17 | –
8 | 59 to 61 °C | O=C(/C=C/C(=O)OCc1ccccc1)OCc1ccccc1 [Compound 1i, (2E)-2-Butenedioic acid, 1,4-bis(phenylmethyl) ester] | 17.7 ± 1.3 µM | 3.4 ± 0.18 | 5.86 ± 0.19 | 7.34 ± 0.28 | –
9 | – | (E)-N, N’-Diphenylethyl-2-butenediamide [Compound 1n] | – | – | – | – | IC50 (LX-2 cells [1]): > 50 µM; Fold Induction (ELISA) (HO-1; 1 μM): 5.82 ± 0.12 fold; Fold Induction (ELISA) (HO-1; 5 μM): 7.52 ± 0.21 fold; Fold Induction (ELISA) (HO-1; 10 μM): 8.40 ± 0.38 fold
10 | – | O=C(/C=C/C(=O)NCc1ccccc1)NCc1ccccc1 [Compound 1m, (E)-N, N’-Diphenylmethyl-2-butenediamide] | 18.6 ± 1.4 µM | > 7 | > 14 | 13.8 ± 0.35 | ROS production mediated by palmitic acid (PA), co-treatment (LX-2 cells [2]): significantly reversed the effect mediated by PA; Fold Induction (ELISA) (HO-1; 5 μM, 5 µM): 14.15 ± 0.34 fold; potency as HO-1 inducers relative to DMF (HO-1): 2–3 fold
11 | – | O=C(/C=C/C(=O)OCCCc1ccccc1)OCCCc1ccccc1 [Compound 1k, (2E)-2-Butenedioic acid, 1,4-bis(phenylpropyl) ester] | > 50 µM | 2.26 ± 0.09 | 5.98 ± 0.16 | 9.55 ± 0.27 | –
12 | 160 to 161 °C | Cc1ccc(OC(=O)/C=C/C(=O)Oc2ccc(C)cc2)cc1 [Compound 1f] | > 50 µM | 1.82 ± 0.09 | 3.94 ± 0.13 | 3.76 ± 0.15 | –
13 | 50 to 51 °C | COC(=O)/C=C/C(=O)OCc1ccccc1 [Compound 2b, (2E)-2-Butenedioic acid, methyl phenylmethyl ester] | > 50 µM | – | – | 0.28 | –
14 | – | (E)-N, N’-Diphenylpropyl-2-butenediamide [Compound 1o] | – | – | – | – | IC50 (LX-2 cells [1]): > 50 µM; Fold Induction (ELISA) (HO-1; 1 μM): 4.85 ± 0.13 fold; Fold Induction (ELISA) (HO-1; 5 μM): 6.93 ± 0.23 fold; Fold Induction (ELISA) (HO-1; 10 μM): 6.30 ± 0.21 fold
15 | – | CCCCCCCCCCCCCCCC(=O)O [PA, palmitic acid, reference compound] | – | – | – | – | ROS production, PA alone (LX-2 cells [2]; PA 300 μM, p < 0.05 vs. control): increased ROS production
16 | 122 to 123 °C | O=C(/C=C/C(=O)Oc1ccc(C(F)(F)F)cc1)Oc1ccc(C(F)(F)F)cc1 [Compound 1d, (2E)-2-Butenedioic acid, 1,4-bis(4-trifluoromethyphenyl) ester] | > 50 µM | – | 1.4 ± 0.03 | 0.68 ± 0.02 | –
17 | 54 to 55 °C | COC(=O)/C=C/C(=O)Oc1ccccc1 [Compound 2a, (2E)-2-Butenedioic Acid, Methyl Phenyl Ester] | > 50 µM | – | – | – | –
18 | 44 to 45 °C | COC(=O)/C=C/C(=O)OCCc1ccccc1 [Compound 2c, (2E)-2-Butenedioic acid, methyl phenylethyl ester] | > 50 µM | – | – | – | –
19 | 266 to 267 °C | O=C(/C=C/C(=O)Oc1ccc(I)cc1)Oc1ccc(I)cc1 [Compound 1c, (2E)-2-Butenedioic acid, 1,4-bis(4-iodophenyl) ester] | 20.8 ± 1.5 µM | 6.02 ± 0.13 | 7.7 ± 0.19 | 8.13 ± 0.23 | –
20 | – | COC(=O)/C=C/C(=O)OC [DMF, dimethyl fumarate] | > 50 µM | 2.78 ± 0.09 | 7.63 ± 0.31 | 8.3 ± 0.23 | ROS production mediated by palmitic acid (PA), co-treatment (LX-2 cells [2]): significantly reversed the effect mediated by PA
